Data taken from patent US20120035187A1 (priority 2009, published 2012).
Marks after values point to notes of the source that are not given here.

Experiments:
[1] = tested on: PI3K-Akt cascade; assay: Actions of NK-4 on PC12-HS cells in presence of K252a or LY294002; format: cell-based, rat; details: concrete data omitted
[2] = tested on: intracellular cyclic adenosine monophosphate (AMP); assay: Increment of intracellular cyclic AMP; format: cell-based
[3] = tested on: SAPK/JNK; assay: Phosphorylation of SAPK/JNK by hydrogen-peroxide-induced cell injury; format: cell-based
[4] = Body weight of hamsters with cerebellar ataxia during administration; format: in vivo, hamster; details: compared between groups administered with PBS, NK-4 and IGF-1
[5] = tested on: brain ischemia rat; assay: Brain ischemia (cerebral infarction model) rat: size/volume of cerebral infarction region (TTC); format: in vivo; details: for Volume of cerebral infarction region (mm^3): embolus rat, caudal vein
[6] = biological target: T1, acetylcholine esterase (AchE) (Rattus norvegicus, UniProt P37136); assay: biochemical; format: biochemical
T1 sequence (P37136 32-614): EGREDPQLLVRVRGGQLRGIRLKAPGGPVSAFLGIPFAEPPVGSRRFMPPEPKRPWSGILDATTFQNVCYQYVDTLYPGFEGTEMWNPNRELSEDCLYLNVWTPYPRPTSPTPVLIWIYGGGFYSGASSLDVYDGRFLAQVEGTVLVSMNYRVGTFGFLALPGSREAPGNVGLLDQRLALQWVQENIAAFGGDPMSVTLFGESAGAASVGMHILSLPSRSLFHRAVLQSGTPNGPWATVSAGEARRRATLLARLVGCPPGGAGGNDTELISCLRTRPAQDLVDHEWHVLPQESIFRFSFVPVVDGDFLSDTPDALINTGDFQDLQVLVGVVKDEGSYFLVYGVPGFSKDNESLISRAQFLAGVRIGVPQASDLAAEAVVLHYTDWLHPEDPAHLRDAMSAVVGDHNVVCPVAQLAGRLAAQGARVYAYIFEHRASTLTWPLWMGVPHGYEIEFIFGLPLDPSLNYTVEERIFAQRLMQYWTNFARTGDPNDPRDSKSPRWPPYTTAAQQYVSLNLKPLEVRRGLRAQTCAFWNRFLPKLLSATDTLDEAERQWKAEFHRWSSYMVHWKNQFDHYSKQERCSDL

[7] = Hydroxyl radical-scavenging activity, ESR (Fenton reaction)
[8] = Peroxyl radical-scavenging activity, ESR (AAPH)
Description: Stock solutions, prepared by dissolving NK-4, NK-19, NK-53, NK-100, and NK-557 in DMSO, were respectively diluted with 0.1 M phosphate buffer to give concentrations of […] higher than those in Table 15 and used as test sample solutions. To 50 μl of 0.1 M phosphate buffer (pH 7.4), 50 μl of 180 mM DMPO ([…]) commercialized by Dojindo Laboratories, Kumamoto, Japan, 50 μl of any one of the test sample solutions, and 50 μl of 100 mM AAPH, commercialized by Wako Pure Chemical Industries, Osaka, Japan, were added, mixed for 10 seconds using a vortex mixer and allowed to react in an incubator controlled at 37° for two minutes and 50 seconds. After 30 seconds from completion of the reaction, the resulting reaction mixture was subjected to ESR measurement.
The reaction mixture for measuring hydroxyl or peroxyl radicals was poured into a flat quartz cell for ESR, set to “FREE RADICAL MONITOR JES-FR30”, an ESR apparatus commercialized by JOEL Ltd., Tokyo, Japan, and ESR was measured according to manual manner. The residual ratio of peroxyl radical (%) was determined as a relative value by defining the ESR value, obtained by using 0.1 M phosphate buffer as a substitute of the test sample solution, as 100. The results are in Tables 14 and 15. […] Therefore, the IC50 of edaravone was determined by another test using its higher concentration, and the result is also shown in Table 14. The conditions of the ESR measurement were set as follows: […]

[9] = tested on: APP Tg mouse; assay: Passive avoidance test, APP transgenic mouse; format: in vivo; details: for Passive avoidance reaction: intraperitoneal, five times a week for 12 weeks
[10] = tested on: APP Tg mouse; assay: Water maze test, APP transgenic mouse; format: in vivo; details: for Water maze test 1st day / Water maze test 2nd day / Water maze test 3rd day / Water maze test 4th day: time required for arriving the platform
[11] = compound concentration 25 μg/ml
[12] = concentration of compound 3.13 μg/ml
[13] = concentration of compound 6.25 μg/ml
[14] = concentration of compound 12.5 μg/ml
[15] = i.p. five times a week for 12 weeks

With `CCN1C=CC(=CC=C(C=Cc2cc[n+](CC)c3ccccc23)c2cc[n+](CC)c3ccccc23)c2ccccc21.[I-].[I-]` [NK-4] the “inhibition by K252a of the actions of NK-4 on PC12-HS cell growth promotion and neurite outgrowth” value ([1]; K252a, protein kinase inhibitor specific to TrkA) was “did not inhibit”, the “inhibition by LY294002 of the action of NK-4” value ([1]; LY294002, PI3K inhibitor) was “is inhibited by LY294002” and the “increment of intracellular cyclic adenosine monophosphate (AMP)” value [2] was “inducing the increment of intracellular cyclic adenosine monophosphate (AMP)”. The “phosphorylation of SAPK/JNK” value [3] was “inhibits the phosphorylation of SAPK/JNK”, the “body weight of hamsters with cerebellar A, weighed once every week up to 10-weeks of age” value [4] was “no significant difference” and the “increment of the volume of cerebral infarction region (in words)” value ([5]; Experiment 13, cerebral-infarction-model rat, administered through caudal vein) was “significantly suppressed”. The “Size of cerebral infarcttion region (%)” value ([5]; brain ischemia rats, 100 p g/kg body weight via caudal vein twice, relative to control group 1 = 100%) was 49.4 ± 5.1 %, the “Volume of cerebral infarction region (mm^3)” value (from here on “Volume … (mm^3)”) ([5]; dose 25 μg per kg body weight) was 186 ± 21 mm^3 and the “Volume … (mm^3)” value ([5]; dose 50 μg per kg body weight) was 107 ± 21* mm^3. The “Volume … (mm^3)” value ([5]; dose 100 μg per kg body weight) was 88 ± 18** mm^3, the “Volume … (mm^3)” value ([5]; dose 200 μg per kg body weight) was 143 ± 26 mm^3 and the “Volume … (mm^3)” value ([5]; dose 300 μg per kg body weight) was 176 ± 31 mm^3. For the same compound, the “IC50 (concentration of a compound inhibiting the AchE activity of 50%)” value ([6]; AchE solution from PC12-HS cells) was 3.3 µg/mL, the “action of inhibiting AchE activity (in words)” value ([6]; Experiment 14, comparison of NK-4 analogues and NK-150) was “strongly inhibited AchE activity” and the “Residual ratio of AchE activity (%)” value ([6]; compound concentration 0.78 μg/ml) was 84 ± 6%. The “Residual ratio of AchE activity (%)” value ([6]; compound concentration 1.56 μg/ml) was 66 ± 7%, the “Residual ratio of AchE activity (%)” value ([6]; compound concentration 3.13 μg/ml) was 42 ± 4 % and the “Residual ratio of AchE activity (%)” value ([6]; compound concentration 6.25 μg/ml) was 37 ± 10 %. The “Residual ratio of AchE activity (%)” value ([6]; compound concentration 12.5 μg/ml) was 38 ± 2 %, the “Residual ratio of AchE activity (%)” value [6, 11] was 30 ± 8 % and the “Residual ratio of AchE activity (%)” value ([6]; concentration of compound 0.78 μg/ml) was 91 ± 4%. For the same compound, the “Residual ratio of AchE activity (%)” value ([6]; concentration of compound 1.56 μg/ml) was 47 ± 4 %, the “Residual ratio of AchE activity (%)” value [6, 12] was 41 ± 9 % and the “Residual ratio of AchE activity (%)” value [6, 13] was 38 ± 7 %. The “Residual ratio of AchE activity (%)” value [6, 14] was 24 ± 2 %, the “Residual ratio of AchE activity (%)” value ([6]; concentration of compound 25 μg/ml) was 25 ± 3 % and the “Residual ratio of AchE activity (%)” value ([6]; concentration of compound 50 μg/ml) was 22 ± 2 %. The “IC50” value ([6]; concentration that suppresses AchE activity by 50%, calculated from residual ratios) was 1.5 µg/mL, the “IC50 (μg/ml) of hydroxyl radical-scavenging activity” value [7] was 6.7 µg/mL and the “Residual ratio of hydroxyl radical (%)” value ([7]; concentration of compound 2.5 μg/ml) was 15 ± 1 %. The “Residual ratio of hydroxyl radical (%)” value [7, 12] was 67 ± 1 %, the “Residual ratio of hydroxyl radical (%)” value [7, 13] was 49 ± 2 % and the “Residual ratio of hydroxyl radical (%)” value [7, 14] was 26 ± 1 %. For the same compound, the “IC50 (μg/ml) of peroxyl radical-scavenging activity” value [8] was 4.7 µg/mL, the “Residual ratio of peroxyl radical (%)” value ([8]; compound concentration 5 μg/ml) was 46 ± 9 % and the “Residual ratio of peroxyl radical (%)” value [8, 11] was 17 ± 1 %. For the same compound, the “Residual ratio of peroxyl radical (%)” value ([8]; compound concentration 50 μg/ml) was 16 ± 0 %, the “Passive avoidance reaction” value ([9]; dose 100 μg/kg body weight) was 280 ± 20 s and the “Passive avoidance reaction” value ([9]; dose 500 μg/kg body weight) was 243 ± 25 s. The “passive avoidance test (in words)” value [9, 15] was “improved the dementia”, the “Water maze test 1st day” value ([10]; dose 100 μg/kg body weight) was 101 ± 38 and the “Water maze test 2nd day” value ([10]; dose 100 μg/kg body weight) was 73 ± 13. For the same compound, the “Water maze test 3rd day” value ([10]; dose 100 μg/kg body weight) was 59 ± 10, the “Water maze test 4th day” value ([10]; dose 100 μg/kg body weight) was 34 ± 10 and the “Water maze test 1st day” value ([10]; dose 500 μg/kg body weight) was 116 ± 3. The “Water maze test 2nd day” value ([10]; dose 500 μg/kg body weight) was 63 ± 12, the “Water maze test 3rd day” value ([10]; dose 500 μg/kg body weight) was 40 ± 7 and the “Water maze test 4th day” value ([10]; dose 500 μg/kg body weight) was 27 ± 7. For the same compound, the “water maze test (in words)” value [10, 15] was “improved the dementia”.
